Results as given in patent US20040067565A1, “Selective functionalization of hydrocarbons with isolated oxygenases and mediator based regeneration” (priority 2002, published 2004).
Read-outs that look alike come from different tables or passages of the source. Marks after values point to notes of the source that are not given here.

Key:
[1] = molecular target: T1, monooxygenase component of styrene monooxygenase (StyA) (Pseudomonas sp, UniProt O50214); test: [Cp*Rh(bpy)(H2O)]2+ driven, StyA-catalyzed epoxidation / sulfoxidation; format: biochemical; conditions: substrate 2 mM, reaction time 15 min, 37 °C, 0.2 mM [Cp*Rh(bpy)(H2O)]2+, 1.47 μM StyA; for Epoxides concentration: 20 μM FAD, Positive = no standard substances available yet
Procedure: In a typical experimental setup 1 ml total volume was placed in an Eppendorf cup in a Thermomixer. The temperature was set to 37° C. and the reaction mixture was shaken thoroughly to ensure O2 intake.
Product formation was followed by reversed phase HPLC. The HPLC system (Merck) consisted of a D-7000 controller, L-7200 autosampler, L-7400 UV detector, L-7100 liquid chromatography pump and was fitted with a CC250/4 Nucleosil 100-5 C18 HD column. Samples were eluted under isocratic conditions using 60% acetonitrile and 40% water at a flow rate of 1 ml×min^−1. The elution pattern was monitored at 210 nm.
0.2 mM [Cp*Rh(bpy)(H2O)]^2+, 0.05 mM FAD, 0.005 mM FMN, 2 mM styrene, 280 U catalase, and 1.16 μM StyA in 50 mM potassium phosphate buffer with 150 mM sodium formate were incubated at 37° C. and agitation at 1500 rpm. At intervals, reactions were stopped by addition of one equivalent volume of cold acetonitrile. After centrifugation (15 min at 4° C. and 23000×g the upper phase was analyzed by reverse phase HPLC. Concentrations were corrected according to the phase ratio after centrifugation. Results from this experiment are given in FIG. 10 and Table 3.
0.2 mM [Cp*Rh(bpy)(H2O)]^2+, 0.02 mM FAD, 2 mM substrate, 200 U catalase, and 1.47 μM StyA in 50 mM potassium phosphate buffer with 150 mM sodium formate were incubated at 37° C. and agitation at 1500 rpm.
Styrene oxide was analyzed using a CC200/4 Nucleodex α-PM (Machery-Nagel). As eluent 60% methanol and 40% 6.2 mM TEAA in water was used at a flow rate of 0.7 ml×min^−1. 1,2-Dihydronaphthalene oxide, trans-β-Methylstyrene oxide, indene oxide, and methyl phenyl sulfoxide were extracted from the reaction buffer with one aliquot hexane und analyzed unsing normal phase HPLC with a CHIRACEL OB—H column and hexane:isopropanol 95:5 (9:1 for methyl phenyl sulfoxide) at a flow rate of 0.5 ml*min^−1 as mobile phase. As reference either authentical samples of racemic epoxides were used. (Table 4). […]

CytC = CytC (Equus caballus, UniProt P00004)
Procedure: On the other hand CytC is inactivated by hydrogen peroxide, which can be followed by the disappearing Soret-peak (heme absorbance at k=408 nm).
In a typical experiment […] CytC is incubated at 30° C. in the presence of 1 mM hydrogen peroxide. At intervals of 2 min the UV-spectrum (between 300 and 650 nm) is recorded (FIG. 18).
In identical experiments, the absorbance at 408 nm was followed over time.

[2] = molecular target: T2, Alkane Hydoxylase from P. Oleovorans (AlkB) (Ectopseudomonas oleovorans, UniProt P12691); test: Direct reduction of alkane hydroxylase AlkB by [Cp*Rh(bpy)(H2O)]2+, hydroxylation of 3-ethyl toluene; format: biochemical; conditions: 200 μM [Cp*Rh(bpy)(H2O)]2+, 2 mM 3-ethyl toluene, AlkB crude extract, 30 °C, 20 minutes; average of 4 experiments
T2 construct: made in house; host or cells: E. coli
Procedure: In a typical experiment, 1 ml total volume of 200 μM [Cp*Rh(bpy)(H2O)]^2+ are incubated with 2 mM 3-ethyl toluene and 100 μl of a cell crude extract of recombinant E. coli overexpressing AlkB in a final volume of 1 ml 100 mM potassium phosphate buffer (pH 7.4) supplemented with 150 mM sodium formate and 1 mg/ml bovine serum albumin at 30° C. and vigorous shaking. After 20 minutes the reaction is stopped by addition of […] perchloric acid (10%). After centrifugation the supernatant is extracted with one aliquot of hexane. The organic phase is analyzed by normal phase HPLC (Nucleosil 250/3 100-5 C, mobile phase: hexane/isopropanol 95:5, flow rate=0.5 ml min^−1).

[3] = molecular target: T1, monooxygenase component of styrene monooxygenase (StyA); test: [Cp*Rh(bpy)(H2O)]2+ driven, StyA-catalyzed epoxidation / sulfoxidation; format: biochemical; conditions: substrate 4 mM, reaction time 15 min, 37 °C, 0.2 mM [Cp*Rh(bpy)(H2O)]2+, 1.47 μM StyA

T1 sequence (O50214 whole entry): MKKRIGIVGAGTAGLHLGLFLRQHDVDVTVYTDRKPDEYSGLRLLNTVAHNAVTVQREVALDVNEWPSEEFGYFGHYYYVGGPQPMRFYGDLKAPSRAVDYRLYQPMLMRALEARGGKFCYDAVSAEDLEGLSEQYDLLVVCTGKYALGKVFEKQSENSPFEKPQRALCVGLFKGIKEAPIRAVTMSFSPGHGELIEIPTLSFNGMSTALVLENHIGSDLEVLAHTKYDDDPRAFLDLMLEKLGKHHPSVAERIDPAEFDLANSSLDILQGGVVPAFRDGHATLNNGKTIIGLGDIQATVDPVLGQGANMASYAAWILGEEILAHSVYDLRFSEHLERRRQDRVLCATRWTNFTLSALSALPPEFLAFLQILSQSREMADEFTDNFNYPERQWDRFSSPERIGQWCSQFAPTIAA
CytC, sequence (P00004 whole entry): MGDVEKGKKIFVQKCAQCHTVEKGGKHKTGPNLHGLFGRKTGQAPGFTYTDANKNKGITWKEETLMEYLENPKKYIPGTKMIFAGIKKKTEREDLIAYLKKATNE
T2 sequence (P12691 whole entry): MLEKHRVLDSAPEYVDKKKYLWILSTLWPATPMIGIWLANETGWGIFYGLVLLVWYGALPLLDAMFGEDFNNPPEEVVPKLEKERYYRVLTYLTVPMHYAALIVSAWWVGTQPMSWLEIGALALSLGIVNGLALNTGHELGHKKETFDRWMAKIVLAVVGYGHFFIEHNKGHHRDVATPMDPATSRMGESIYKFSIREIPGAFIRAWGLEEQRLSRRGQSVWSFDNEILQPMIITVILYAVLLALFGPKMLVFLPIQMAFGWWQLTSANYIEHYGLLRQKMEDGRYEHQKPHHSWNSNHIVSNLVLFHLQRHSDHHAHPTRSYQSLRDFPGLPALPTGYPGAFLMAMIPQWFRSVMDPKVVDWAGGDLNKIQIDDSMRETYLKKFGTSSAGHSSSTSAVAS

## C=Cc1ccc(C)cc1 [4-Methyl-styrene]
[1]
  Epoxides concentration: 0.29 mM

## C=Cc1ccc(Br)cc1 [4-Bromo styrene]
[1]
  Epoxides concentration: Positive^[c]

## CSc1ccccc1 [Thioanisole]
[1]
  ee-value of the epoxides: 23.3%
  Epoxides concentration: 0.33 (Methyl mM

## C1=Cc2ccccc2C1 [Indene]
[1]
  ee-value of the epoxides: 97.9%
  Epoxides concentration: 0.42 mM

## OO [H2O2, hydrogen peroxide]
CytC; CytC 15 μM, 1 mM hydrogen peroxide, 10 minutes
  CytC enzymatic activity after preincubation (sulfoxidation of thioanisol): almost complete loss of enzymatic activity
CytC; [CytC] 5 μM, [H2O2] 5 mM
  dE (408 nm)/dt: -0.0116 min⁻¹
CytC; [CytC] 5 μM, [H2O2] 10 mM
  dE (408 nm)/dt: -0.0231 min⁻¹
CytC; [CytC] 5 μM, [H2O2] 20 mM
  dE (408 nm)/dt: -0.0399 min⁻¹
CytC; [CytC] 7.5 μM, [H2O2] 10 mM
  dE (408 nm)/dt: -0.0281 min⁻¹
CytC; [CytC] 10 μM, [H2O2] 5 mM
  dE (408 nm)/dt: -0.0234 min⁻¹
CytC; [CytC] 10 μM, [H2O2] 7.5 mM
  dE (408 nm)/dt: -0.0330 min⁻¹
CytC; [CytC] 10 μM, [H2O2] 10 mM
  dE (408 nm)/dt: -0.0438 min⁻¹
CytC; [CytC] 10 μM, [H2O2] 15 mM
  dE (408 nm)/dt: -0.0637 min⁻¹
CytC; [CytC] 10 μM, [H2O2] 20 mM
  dE (408 nm)/dt: -0.0821 min⁻¹

## C/C=C/c1ccccc1 [Trans-β-Methylstyrene]
[1]
  ee-value of the epoxides: 97.6%
  Epoxides concentration: 0.28 mM

## C=Cc1cccc(Cl)c1 [3-Chloro-styrene]
[1]
  Epoxides concentration: 0.37 mM

## Cc1cccc(CCO)c1 [3-methylphenethylalcohol]
[2]
  3-methylphenethylalcohol produced: about 0.015 mM

## C=Cc1ccc(Cl)cc1 [4-Chloro styrene]
[1]
  Epoxides concentration: Positive^[c]

## C=Cc1ccc(F)cc1 [4-Fluoro styrene]
[1]
  Epoxides concentration: Positive^[c]

## C=Cc1ccc(OC)cc1 [4-Methoxy styrene]
[1]
  Epoxides concentration: Positive^[c]

## C1=Cc2ccccc2CC1 [1,2-Dihydronaphthalene]
[1]
  ee-value of the epoxides: 98.9%
  Epoxides concentration: 0.23 mM

## CCSc1ccccc1 [Phenyl ethyl sulfide]
[1]
  Epoxides concentration: Positive^[c]

## C=Cc1ccccc1 [Styrene]
[3]; 20 μM FAD
  Epoxides concentration: 0.33 mM
[3]; (S)
  ee-value of the epoxides: <98 (S)^[a] %
